# Test results: patent publication US9187467B2, “2-phenyl benzothiazole linked imidazole compounds as potential anticancer agents and process for the preparation thereof” (Council of Scientific and Industrial Research, priority 2012, dated 2015)
# Legend:
# [1] = system: HL-60 (TB); assay: SRB anticancer assay, leukemia; format: cell-based, human; design: Log10GI50: unit not given here; details: for Log10GI50: HL-60(TB), present compounds; for GI50: Homo sapiens, HL-60, 48 h
# [2] = system: SR; assay: SRB anticancer assay, leukemia; format: cell-based, human; details: Homo sapiens, 48 h
# [3] = system: NCI-H226; assay: SRB anticancer assay, non-small lung; format: cell-based, human; details: Homo sapiens, NCI-H226, 48 h
# [4] = system: NCI-H23; assay: SRB anticancer assay, non-small lung; format: cell-based, human; details: for GI50: Homo sapiens, NCI-H23, 48 h; for Log10GI50: NCI-H23, present compounds
# [5] = system: NCI-H322M; assay: SRB anticancer assay, non-small lung; format: cell-based, human; details: Homo sapiens, 48 h
# [6] = system: NCI-H460; assay: SRB anticancer assay, non-small lung; format: cell-based, human; details: Homo sapiens, NCI-H460, 48 h
# [7] = system: NCI-H522; assay: SRB anticancer assay, non-small lung; format: cell-based, human; design: Log10GI50: unit not given here; details: for GI50: Homo sapiens, NCI-H522, 48 h; for Log10GI50: NCI-H522, present compounds
# [8] = system: SF-268; assay: SRB anticancer assay, CNS; format: cell-based, human; design: Log10GI50: unit not given here; details: for GI50: Homo sapiens, SF-268, 48 h; for Log10GI50: SF-268, present compounds
# [9] = system: SF-539; assay: SRB anticancer assay, CNS; format: cell-based, human; design: Log10GI50: unit not given here; details: for GI50: Homo sapiens, SF-539, 48 h; for Log10GI50: SF-539, present compounds
# [10] = system: SNB-19; assay: SRB anticancer assay, CNS; format: cell-based, human; design: Log10GI50: unit not given here; details: for GI50: Homo sapiens, SNB-19, 48 h; for Log10GI50: SNB-19, present compounds
# [11] = system: U251; assay: SRB anticancer assay, CNS; format: cell-based, human; design: Log10GI50: unit not given here; details: for Log10GI50: U251, present compounds
# [12] = system: IGROV1; assay: SRB anticancer assay, ovarian; format: cell-based, human; details: Homo sapiens, IGROV-1; IGROV1, 48 h
# [13] = system: OVCAR-5; assay: SRB anticancer assay, ovarian; format: cell-based, human; details: Homo sapiens, OVCAR-5, 48 h
# [14] = system: OVCAR-8; assay: SRB anticancer assay, ovarian; format: cell-based, human; design: Log10GI50: unit not given here; details: for GI50: Homo sapiens, OVCAR-8, 48 h; for Log10GI50: OVCAR-8, present compounds
# [15] = system: SK-OV-3; assay: SRB anticancer assay, ovarian; format: cell-based, human; details: Homo sapiens, SK-OV-3, 48 h
# [16] = system: 786-0; assay: SRB anticancer assay, renal; format: cell-based, human; details: for Log10GI50: 786-0, present compounds; for GI50: Homo sapiens, 786-0, 48 h
# [17] = system: A498; assay: SRB anticancer assay, renal; format: cell-based, human; design: Log10GI50: unit not given here; details: for Log10GI50: A498, present compounds; for GI50: Homo sapiens, A498, 48 h
# [18] = system: ACHN; assay: SRB anticancer assay, renal; format: cell-based, human; design: Log10GI50: unit not given here; details: for GI50: Homo sapiens, 48 h; for Log10GI50: present compounds
# [19] = system: SN12C; assay: SRB anticancer assay, renal; format: cell-based, human; design: Log10GI50: unit not given here; details: for GI50: Homo sapiens, 48 h; for Log10GI50: present compounds
# [20] = system: UO-31; assay: SRB anticancer assay, renal; format: cell-based, human; design: Log10GI50: unit not given here; details: for GI50: Homo sapiens, UO-31, 48 h; for Log10GI50: UO-31, present compounds
# [21] = system: RXF 393; assay: SRB anticancer assay, renal; format: cell-based, human; design: Log10GI50: unit not given here; details: for GI50: Homo sapiens, RXF 393, 48 h; for Log10GI50: RXF 393, present compounds
# [22] = system: PC-3; assay: SRB anticancer assay, prostate; format: cell-based, human; design: Log10GI50: unit not given here; details: for GI50: Homo sapiens, PC-3, 48 h; for Log10GI50: PC-3, present compounds
# [23] = system: DU-145; assay: SRB anticancer assay, prostate; format: cell-based, human; design: Log10GI50: unit not given here; details: for Log10GI50: DU-145, present compounds; for GI50: Homo sapiens, DU-145, 48 h
# [24] = system: MCF7; assay: SRB anticancer assay, breast; format: cell-based, human; details: Homo sapiens, MCF7, 48 h
# [25] = system: BT-549; assay: SRB anticancer assay, breast; format: cell-based, human; design: Log10GI50: unit not given here; details: for Log10GI50: BT-549, present compounds; for GI50: Homo sapiens, BT-549, 48 h
# [26] = system: T-47D; assay: SRB anticancer assay, breast; format: cell-based; details: Homo sapiens, T47D, 48 h
# [27] = system: LOX IMVI; assay: SRB anticancer assay, melanoma; format: cell-based, human; design: Log10GI50: unit not given here; details: for GI50: Homo sapiens, 48 h; for Log10GI50: present compounds
# [28] = system: SK-MEL-2; assay: SRB anticancer assay, melanoma; format: cell-based, human; details: for GI50: Homo sapiens, SK-MEL-2, 48 h; for Log10GI50: SK-MEL-2, present compounds
# [29] = system: SK-MEL-28; assay: SRB anticancer assay, melanoma; format: cell-based, human; design: Log10GI50: unit not given here; details: for GI50: Homo sapiens, SK-MEL-28, 48 h; for Log10GI50: SK-MEL-28, present compounds
# [30] = system: UACC-62; assay: SRB anticancer assay, melanoma; format: cell-based, human; details: for GI50: Homo sapiens, UACC-62, 48 h; for Log10GI50: UACC-62, present compounds
# [31] = system: K562 (Leukemia) cells; assay: Cell cycle distribution by flow cytometry; format: cell-based
# Experimental: (§1) In order to investigate the mechanism underlying the anti-proliferative effect of the compounds the cell cycle distribution was analyzed in K562 (Leukemia) and MCF-7 (Breast carcinoma) cell lines by flow cytometry. Compounds CA-4, 21a, 21d, 4c, 6d, 6e, 6f, 7d, 7h and 7j have shown 1.72%, 14%, 12%, 14%, 12%, 14%, 14%, 16%, 16% &12% in K562 cells and 49.63%, 21%, 20%, 18%, 21%, 21%, 21%, 24%, 23% and 23% in MCF-7 cell line respectively. […] Thus compound 7d was considered for further studies (FIG. 1).
# [32] = system: MCF-7 (Breast carcinoma) cells; assay: Cell cycle distribution by flow cytometry (FACS); format: cell-based; details: MCF-7 cells, 2 μM, 24h
# Experimental: FIG. 1 represents FACS analysis of cell cycle distribution of MCF-7 cells after treatment with compounds CA-4, 21a, 21d, 4c, 6d, 6e, 6f, 7d, 7h and 7j at 2 μM concentration for 24h and control cells are the cells treated with DMSO (0.25%).
# as §1
smiles,measurement,setting,value
"COc1cc(-c2cncn2-c2ccc(-c3nc4ccc(F)cc4s3)cc2)ccc1F [Compound 4c, 6-Fluoro-2-(4-(5-(4-fluoro-3-methoxyphenyl)-1H-imidazol-1-yl)phenyl)benzo[d]thiazole]",Log10GI50,[1],−5.60
same,GI50,[1],2500 nM
same,GI50,[2],4.99 µM
same,GI50,[3],49.3 µM
same,GI50,[4],8.25 µM
same,Log10GI50,[4],−5.08 log10(M)
same,GI50,[5],36.3 µM
same,GI50,[6],5.7 µM
same,GI50,[7],9.9 µM
same,Log10GI50,[7],−5.00
same,GI50,[8],12.7 µM
same,Log10GI50,[8],−4.51
same,GI50,[9],> 100 µM
same,Log10GI50,[9],−4.12
same,GI50,[10],20.6 µM
same,Log10GI50,[10],>−4.0
same,Log10GI50,[11],−4.90
same,GI50,[12],15.4 µM
same,GI50,[13],> 100 µM
same,GI50,[14],15.2 µM
same,Log10GI50,[14],−4.82
same,GI50,[15],> 100 µM
same,Log10GI50,[16],−4.44 log10 M
same,GI50,[16],36.1 µM
same,Log10GI50,[17],−7.36
same,GI50,[17],43.2 nM
same,GI50,[18],29.1 µM
same,Log10GI50,[18],−4.54
same,GI50,[19],31.9 µM
same,Log10GI50,[19],−4.50
same,GI50,[20],16.5 µM
same,Log10GI50,[20],−4.78
same,GI50,[21],13.5 µM
same,Log10GI50,[21],−4.87
same,GI50,[22],3.47 µM
same,Log10GI50,[22],−5.46
same,Log10GI50,[23],−4.85
same,GI50,[23],14.3 µM
same,GI50,[24],23.5 µM
same,Log10GI50,[25],−4.94
same,GI50,[25],7.98 µM
same,GI50,[26],11.1 µM
same,GI50,[27],35.9 µM
same,Log10GI50,[27],−4.44
same,GI50,[28],39.7 µM
same,Log10GI50,[28],−4.40 M
same,GI50,[29],35.1 µM
same,Log10GI50,[29],−4.45
same,GI50,[30],8.67 µM
same,Log10GI50,[30],−5.06 log10 M
same,cells in G2/M phase,[31],14%
same,cells in G2/M phase,[32],18%
"COc1cc(OC)cc(-c2cncn2-c2ccc(-c3nc4cc(OC)c(OC)c(OC)c4s3)cc2)c1 [Compound 7d, 2-(4-(5-(3,5-Dimethoxyphenyl)-1H-imidazol-1-yl)phenyl)-5,6,7-trimethoxybenzo[d]thiazole]",Log10GI50,[1],−5.61
same,GI50,[1],2430 nM
same,GI50,[2],7.14 µM
same,GI50,[3],21.7 µM
same,GI50,[4],9.56 µM
same,Log10GI50,[4],−5.02 log10(M)
same,GI50,[5],86.5 µM
same,GI50,[6],7.46 µM
same,GI50,[7],11.8 µM
same,Log10GI50,[7],−4.93
same,GI50,[8],22.1 µM
same,Log10GI50,[8],−4.66
same,GI50,[9],22 µM
same,Log10GI50,[9],−4.66
same,GI50,[10],19.7 µM
same,Log10GI50,[10],−4.70
same,GI50,"[11]; Homo sapiens, U-251, U251, 48 h",5.44 µM
same,Log10GI50,[11],−5.26
same,GI50,[12],9.6 µM
same,GI50,[13],> 100 µM
same,GI50,[14],13.4 µM
same,Log10GI50,[14],−4.87
same,GI50,[15],49.9 µM
same,Log10GI50,[16],−4.99 log10 M
same,GI50,[16],10.3 µM
same,Log10GI50,[17],>−4.0
same,GI50,[17],> 100000 nM
same,GI50,[18],11.5 µM
same,Log10GI50,[18],−4.94
same,GI50,[19],31.9 µM
same,Log10GI50,[19],−4.50
same,GI50,[20],1.94 µM
same,Log10GI50,[20],−5.71
same,GI50,[21],30.2 µM
same,Log10GI50,[21],−4.52
same,GI50,[22],3.17 µM
same,Log10GI50,[22],−5.50
same,Log10GI50,[23],−4.51
same,GI50,[23],31.1 µM
same,GI50,[24],4.02 µM
same,Log10GI50,[25],−5.17
same,GI50,[25],4.74 µM
same,GI50,[26],10.7 µM
same,GI50,[27],6.93 µM
same,Log10GI50,[27],−5.16
same,GI50,[28],6.16 µM
same,Log10GI50,[28],−5.21 M
same,GI50,[29],31.6 µM
same,Log10GI50,[29],−4.50
same,GI50,[30],13.8 µM
same,Log10GI50,[30],−4.86 log10 M
same,cells in G2/M phase,[31],16%
same,cells in G2/M phase,[32],24%
